Patent US10603298B2, “Succinate dehydrogenase inhibitors (SDHi's)” (Medical Research Council, priority 2014, dated 2020)
“Also recorded” adds a separate entry of the source.

Columns and labels:
[1] = tested on: adult primary rat cardiomyocytes; test: ROS production (DHE oxidation) in adult primary cardiomyocytes during in situ IR; assay type: cell-based; conditions: 40 min ischaemia then reoxygenation, 4 mM in ischaemic buffer
Experimental: FIG. 13: Tracking cardiomyocytes ROS levels in primary cardiomyocytes during in situ IR. Primary rat cardiomyocytes were subjected to 40 min ischaemia and reoxygenation with ROS levels tracked throughout the experiment by ratiometric measurement of dihydroethidium (DHE) oxidation. […] Representative traces of each condition are shown. The highlighted window indicates the period of the experiment expanded in detail in FIG. 3.a.
(§1) Male Sprague-Dawley rats (300-370 g) were terminally anaesthetised via IP injections of 200 mg/kg sodium pentobarbitone and 330 U/kg heparin. Hearts were excised and retrograde perfused on a Langendorff-perfusion system with 13 mL/min oxygenated KH buffer at 37° C. Cells were isolated by collagenase digestion using standard methods^41. […]
(§2) Cells were imaged within 36 hours of plating. […] Simulated ischaemia was achieved by replacing the buffer with a pre-gassed, hypoxic recording buffer simulating ischaemia (as above but lacking glucose and containing 10 mM sodium lactate, 14.8 mM KCl; pH 6.4) and by covering the heated stage with a transparent, gas-impermeant lid, forming a small chamber into which argon was forced to maintain hypoxia. pO2 was routinely measured as <2.0 mm Hg during simulated ischaemia. […]
(§3) ROS production was estimated by oxidation of DHE. […] All measured cell parameters were analysed with Fiji image processing software.

[2] = tested on: mouse heart IR injury (myocardial infarction); test: In vivo mouse cardiac IR injury (LAD ligation), infarct size by triphenyltetrazolium chloride staining; conditions: dimethyl succinate 8 mg/kg/min infused in combination with dimethyl malonate
Experimental: For the in vivo heart IR model an open-chest, in situ heart model was used^31,32. Male mice (8-10 weeks; Charles River Laboratories, UK) were anaesthetised with sodium pentobarbital (70 mg/kg intraperitoneally (i.p.)), intubated endotracheally and ventilated with 3 cm H2O positive-end expiratory pressure. Adequacy of anaesthesia was monitored using corneal and withdrawal reflexes. Ventilation frequency was kept at 110 breaths per minute with tidal volume between 125-150 μL. A thoracotomy was performed and the heart exposed by stripping the pericardium. A prominent branch of the left anterior descending coronary artery (LAD) was surrounded by a 7-0 Prolene suture that was then passed through a small plastic tube. Ischaemia was induced by tightening the tubing against the heart surface. To assess metabolites during IR in vivo, mice were divided into three groups: 30 min ischaemia, 30 min ischaemia plus 5 min reperfusion and 30 min sham-operation in which the suture was placed but the LAD was not occluded. At the end of each protocol tissue was removed from the at risk and peripheral areas of the heart, selected visually by comparing white versus red tissue, and snap-frozen in liquid nitrogen. […] Infarct size was assessed after 30 min of ischaemia followed by 120 min reperfusion using 2% triphenyltetrazolium chloride staining and is expressed as a percentage of the risk zone^33. […]

C2C12 myoblasts = test: Succinate-dependent mitochondrial superoxide production (MitoSOX) in myoblasts; assay type: cell-based, mouse; conditions: C2C12 cells, normoxic, mitochondria hyperpolarised with oligomycin
Experimental: C2C12 myoblasts were seeded in 35 mm glass bottom culture dishes (MatTek) and incubated for 24 h in low glucose (1 g/L) DMEM. 2 h prior to imaging DMEM was removed, and replaced with imaging buffer (132 mM NaCl; […]; 4.2 mM KCl; 1 mM MgCl2 1 mM CaCl2 adjusted to pH 7.4 with Tris base and supplemented with 2-deoxyglucose (25 μM), and sodium pyruvate (10 mg/L or 4 μM oligomycin as indicated). Myoblasts were pre-incubated with 2 μM MitoSOX for 15 min prior to imaging. MitoSOX fluorescence was monitored using a Nikon Eclipse Ti confocal microscope at 37° C. on a temperature controlled stage for 30 min. MitoSOX was excited at 510 nm and the emitted signal collected with a LP 560 filter following the indicated additions.

[3] = tested on: adult primary rat cardiomyocytes; test: NAD(P)H autofluorescence in primary cardiomyocytes during in situ IR; assay type: cell-based; conditions: 4 mM in ischaemic buffer
Experimental: FIG. 14: Tracking NADH reduction state in primary cardiomyocytes during in situ IR. Primary rat cardiomyocytes were subjected to 40 min ischaemia and reoxygenation and NADH reduction state was tracked throughout the experiment by measurement of NAD(P)H autofluorescence. […] Representative traces of each condition are shown. The highlighted window indicates the period of the experiment expanded in detail in FIG. 3c.
as §1, §2, §3

Q: For `COC(=O)CCC(=O)OC` [dimethyl succinate], which “ROS production / DHE oxidation upon reperfusion” value [1] is on record?
A: The value was “significantly increased mitochondrial ROS production during reperfusion; also recorded: amplified reperfusion DHE oxidation”.

Q: What about the “cardioprotection by dimethyl malonate after adding back dimethyl succinate” value [2] of the same molecule?
A: The value was “cardioprotection was suppressed”.

Q: And the MitoSOX oxidation (C2C12 myoblasts)?
A: Its MitoSOX oxidation is “increased MitoSOX oxidation”.

Q: What about the “NAD(P)H oxidation at reperfusion” value [3] of the same molecule?
A: The value was “suppressed”.
